Literature values as cited in publication PMC11258229 (Scientific Reports, 2024).

Experiments:
[1] = high permeability and low solubility

half-life (T1/2): twenty to sixty six
mean T1/2: thirty five
renal clearance, share of the total conjugate oral dosage: around 13%
biopharmaceutical classification system category [1]: class II
Compound: CC[C@@H]([C@H](C)O)n1ncn(-c2ccc(N3CCN(c4ccc(OC[C@@H]5CO[C@@](Cn6cncn6)(c6ccc(F)cc6F)C5)cc4)CC3)cc2)c1=O [Posaconazole]
